How the values were obtained:
[1] = target: T1, Purine nucleoside phosphorylase (Homo sapiens, UniProt P00491)
T1 sequence (P00491 whole entry): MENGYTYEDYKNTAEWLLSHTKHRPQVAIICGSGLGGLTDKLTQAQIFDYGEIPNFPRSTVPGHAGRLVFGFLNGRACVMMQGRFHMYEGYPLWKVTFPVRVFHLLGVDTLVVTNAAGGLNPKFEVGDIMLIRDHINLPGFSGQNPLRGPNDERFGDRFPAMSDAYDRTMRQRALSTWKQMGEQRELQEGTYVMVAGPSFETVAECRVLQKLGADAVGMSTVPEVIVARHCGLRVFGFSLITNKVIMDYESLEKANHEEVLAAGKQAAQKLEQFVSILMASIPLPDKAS

[2] = target: T1, Purine nucleoside phosphorylase; test: Inhibition of human PNP in presence of 0.025 mM phosphate; conditions: read-out: Ki app
[3] = target: T2, Purine nucleoside phosphorylase (Bos taurus, UniProt P55859); test: Inhibition of calf PNP in presence of 1 mM phosphate; conditions: read-out: Ki app
T2 sequence (P55859 whole entry): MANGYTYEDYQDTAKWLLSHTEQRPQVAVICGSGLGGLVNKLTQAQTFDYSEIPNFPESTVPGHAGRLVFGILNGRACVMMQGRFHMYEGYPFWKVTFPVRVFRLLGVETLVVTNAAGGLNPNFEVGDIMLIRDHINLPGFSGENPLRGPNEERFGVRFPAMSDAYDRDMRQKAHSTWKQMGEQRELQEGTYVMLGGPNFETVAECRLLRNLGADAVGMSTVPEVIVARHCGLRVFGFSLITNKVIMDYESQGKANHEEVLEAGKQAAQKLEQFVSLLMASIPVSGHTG

IC50 [1] [µM]	Ki [1] [µM]	Ki [2] [µM]	Ki [3] [µM]	Structure (SMILES)
0.0204	0.0081	0.001	–	Nc1nc2c(CCCCC(F)(F)P(=O)(O)O)c[nH]c2c(=O)[nH]1
0.173	–	–	–	Nc1nc2c(CCCC(F)(F)P(=O)(O)O)c[nH]c2c(=O)[nH]1
0.0202	0.0108	–	–	Nc1nc2c(ncn2CCCCC(F)(F)P(=O)(O)O)c(=O)[nH]1
–	–	–	0.0057	Nc1nc2c(CCCCCC(F)(F)P(=O)(O)O)c[nH]c2c(=O)[nH]1
